Source: ChEMBL document CHEMBL5661943, “ASAP - In vitro antiviral effect” (2024)
Values joined by “and” are separate entries in the source; they are usually repeats but may differ in a detail not shown here. Equal values may be shown once.

Legend:
[1] = test system: Zika virus; assay: EC50 is reported via analysis of immunofluorescence staining. The assay has been performed by Icahn School of Medicine at Mount Sinai.; assay type: functional, organism-based, Chlorocebus sabaeus, VeroE6/TMPRSS2; settings: for EC90: P-gp concentration 2 uM, P-gp inhibitor Elacidar
[2] = test system: dengue virus type 2; assay: Functional assay to measure dose dependent changes in antiviral-drug inhibitory efficacy against Dengue virus type 2 New Guinea C in Vero E6 miRFP670 cells (cotreated with P-gp inhibitor, CP100356). Cells are treated with antiviral candidates that are serially diluted, following infection, cells are fixed. EC50 is reported via analysis of fluorescence intensity using high-content imager. The …; assay type: organism-based, Chlorocebus sabaeus, Vero C1008
[3] = test system: Zika virus; assay: Functional CPE-based assay to measure dose dependent changes in antiviral-drug inhibitory efficacy against Zika virus MR766 in Vero E6 miRFP670 cells. Cells are treated with antiviral candidates that are serially diluted. EC50 is reported via analysis of MTS assay as a readout of CPE. The assay has been performed by KU Leuven.; assay type: organism-based, Chlorocebus sabaeus, Vero C1008
[4] = test system: Zika virus; assay: Functional CPE-based assay to measure dose dependent changes in antiviral-drug inhibitory efficacy against Zika virus MR766 in Vero E6 miRFP670 cells (cotreated with P-gp inhibitor, CP100356). Cells are treated with antiviral candidates that are serially diluted. EC50 is reported via analysis of MTS assay as a readout of CPE. The assay has been performed by KU Leuven.; assay type: organism-based, Chlorocebus sabaeus, Vero C1008; settings: for EC90: Baseline response 0 %, Maximum response 100 %, P-gp concentration 500 nM, P-gp inhibitor CP100356
[5] = test system: dengue virus type 2; assay: Functional immunofluorescence assay to measure dose dependent changes in antiviral-drug inhibitory efficacy against Dengue virus type 2 Thailand/16681/84 in Vero E6/TMPRSS2 cells (cotreated with P-gp inhibitor, Elacridar). Cells are treated with antiviral candidates that are serially diluted, following infection, cells are fixed. EC50 is reported via analysis of immunofluorescence staining. The assay has been performed by Icahn School of Medicine at Mount Sinai.; assay type: organism-based, Chlorocebus sabaeus, VeroE6/TMPRSS2

CC(C)NC(=O)[C@H](Nc1ccc2c(c1)CNC2)c1cc(Cl)cc2[nH]ncc12
EC50 ([1]; Zika virus, VeroE6/TMPRSS2): > 16.7 µM
EC90 ([1]; Zika virus, VeroE6/TMPRSS2, Maximum measured 103.391 %, Minimum measured 35.108 %): > 16.7 µM
EC90 ([2]; Dengue virus, Vero C1008, Maximum measured 125.719 %, Minimum measured 102.313 %, P-gp concentration 500 nM, P-gp inhibitor CP100356): > 50 µM
EC90 ([2]; Dengue virus, Vero C1008, Maximum measured 136.006 %, Minimum measured 106.773 %, P-gp concentration 500 nM, P-gp inhibitor CP100356): > 50 µM
EC90 ([2]; Dengue virus, Vero C1008, Maximum measured 137.073 %, Minimum measured 93.467 %, P-gp concentration 500 nM, P-gp inhibitor CP100356): > 50 µM
EC90 ([2]; Dengue virus, Vero C1008, Baseline response 0 %, Hill slope 0.455, Maximum measured 96.007 %, Maximum response 100 %, Minimum measured 82.569 %, P-gp concentration 500 nM, R squared 0.098, P-gp inhibitor CP100356): > 6.25 µM
EC50 ([2]; vero c1008): > 50 µM
EC50 ([3]; Zika virus, Vero C1008): > 50 µM
EC90 ([3]; Zika virus, Vero C1008, Maximum measured -0.394 %, Minimum measured -3.218 %): > 50 µM
EC90 ([4]; Hill slope 0.274, Maximum measured 19.104 %, Minimum measured -8.849 %, R squared 0.058): > 50 µM
EC90 ([4]; Hill slope 0.987, Maximum measured 78.474 %, Minimum measured 2.604 %, R squared 0.941): > 50 µM
EC90 ([4]; Zika virus, Vero C1008, Hill slope 2.014, Maximum measured 45.209 %, Minimum measured -1.87 %, R squared 0.776): > 50 µM
EC50 ([4]; vero c1008): > 50 µM and 5.7 µM

O=C(Nc1ccc2c(c1)CNC2)c1cccc2[nH]ncc12
EC50 ([2]; Dengue virus, Vero C1008): < 0.391 µM
EC90 ([2]; Dengue virus, Vero C1008, Baseline response 0 %, Hill slope 0.492, Maximum measured 128.823 %, Maximum response 100 %, Minimum measured 60.42 %, P-gp concentration 500 nM, R squared 0.116, P-gp inhibitor CP100356): < 0.391 µM
EC50 ([3]; Zika virus, Vero C1008): < 0.391 µM
EC90 ([3]; Zika virus, Vero C1008, Baseline response 0 %, Hill slope -0.113, Maximum measured 48.96 %, Maximum response 100 %, Minimum measured -6.302 %, R squared 0.011): < 0.391 µM
EC50 ([5]; Dengue virus, VeroE6/TMPRSS2): > 50 µM
EC90 ([5]; Dengue virus, VeroE6/TMPRSS2, Maximum measured 158.189 %, Minimum measured 143.688 %, P-gp concentration 2 uM, P-gp inhibitor Elacidar): > 50 µM

O=C(Nc1cc(Cl)cc(C(=O)Nc2cccc(C3CCNCC3)c2)c1)OCc1ccccc1
EC50 ([1]; Zika virus, VeroE6/TMPRSS2): 3.24 µM
EC90 ([1]; Zika virus, VeroE6/TMPRSS2, Maximum measured 120.28 %, Minimum measured 106.347 %): > 1.85 µM
EC90 ([1]; Zika virus, VeroE6/TMPRSS2, Baseline response 0 %, Hill slope -10.935, Maximum measured 129.824 %, Maximum response 100 %, Minimum measured 42.275 %, R squared 0.16): > 3.33 µM
EC50 ([1]; veroe6/tmprss2): > 1.85 µM
EC50 ([2]; Dengue virus, Vero C1008): 4.04 µM
EC90 ([2]; Dengue virus, Vero C1008, Baseline response 0 %, EC90 CI (lower) 2.724 uM, EC90 CI (upper) 4.009 uM, Hill slope -10.989, Maximum measured 107.904 %, Maximum response 100 %, Minimum measured 0.838 %, P-gp concentration 500 nM, R squared 0.983, P-gp inhibitor CP100356): 4.93 µM
EC50 ([3]; Zika virus, Vero C1008): > 50 µM
EC90 ([3]; Zika virus, Vero C1008, Maximum measured 1.3 %, Minimum measured -10.726 %): > 50 µM
EC90 ([5]; Baseline response 0 %, Hill slope -7.018, Maximum measured 136.667 %, Maximum response 100 %, Minimum measured 60.314 %, P-gp concentration 2 uM, R squared 0.441, P-gp inhibitor Elacidar): > 1.85 µM
EC50 ([5]; Dengue virus, VeroE6/TMPRSS2): 3.24 µM
EC90 ([5]; Dengue virus, VeroE6/TMPRSS2, Baseline response 0 %, Hill slope -0.392, Maximum measured 120.272 %, Maximum response 100 %, Minimum measured 45.482 %, P-gp concentration 2 uM, R squared 0.27, P-gp inhibitor Elacidar): > 3.33 µM
EC50 ([5]; veroe6/tmprss2): > 1.85 µM

O=C(NS(=O)(=O)C1CC1)c1cc(Cl)ccc1NS(=O)(=O)c1ccc(Oc2ccccc2Cl)cc1
EC50 ([1]; Zika virus, VeroE6/TMPRSS2): 45.9 µM
EC90 ([1]; Zika virus, VeroE6/TMPRSS2, Baseline response 0 %, Hill slope -22.702, Maximum measured 122.036 %, Maximum response 100 %, Minimum measured 12.187 %, R squared 0.505): > 50 µM
EC50 ([2]; Dengue virus, Vero C1008): 44.5 µM
EC90 ([2]; Dengue virus, Vero C1008, Baseline response 0 %, Hill slope -56.608, Maximum measured 108.404 %, Maximum response 100 %, Minimum measured 0.137 %, P-gp concentration 500 nM, R squared 0.959, P-gp inhibitor CP100356): 46.3 µM
EC50 ([3]; Zika virus, Vero C1008): > 50 µM
EC90 ([3]; Zika virus, Vero C1008, Baseline response 0 %, Hill slope 1.706, Maximum measured 45.349 %, Maximum response 100 %, Minimum measured -3.564 %, R squared 0.879): > 50 µM
EC50 ([5]; Dengue virus, VeroE6/TMPRSS2): 42.5 µM
EC90 ([5]; Dengue virus, VeroE6/TMPRSS2, Baseline response 0 %, Hill slope -20.818, Maximum measured 101.748 %, Maximum response 70 %, Minimum measured 2.339 %, P-gp concentration 2 uM, R squared 0.5, P-gp inhibitor Elacidar): 47.3 µM

N#C[C@H](Nc1ccc2c(c1)CNC2)c1cc(Cl)cc2[nH]ncc12
EC50 ([1]; Zika virus, VeroE6/TMPRSS2): 7.2 µM
EC90 ([1]; Zika virus, VeroE6/TMPRSS2, Baseline response 0 %, Hill slope -1.174, Maximum measured 85.278 %, Maximum response 50 %, Minimum measured 14.695 %, R squared 0.497): > 16.7 µM
EC50 ([2]; Dengue virus, Vero C1008): > 50 µM
EC90 ([2]; Dengue virus, Vero C1008, Maximum measured 117.716 %, Minimum measured 103.927 %, P-gp concentration 500 nM, P-gp inhibitor CP100356): > 50 µM
EC90 ([2]; Dengue virus, Vero C1008, Maximum measured 161.231 %, Minimum measured 110.618 %, P-gp concentration 500 nM, P-gp inhibitor CP100356): > 50 µM
EC50 ([3]; Zika virus, Vero C1008): 42.5 µM
EC90 ([3]; Zika virus, Vero C1008, Baseline response 0 %, Hill slope 4.778, Maximum measured 68.413 %, Maximum response 100 %, Minimum measured -0.525 %, R squared 0.993): > 50 µM
EC90 ([3]; Zika virus, Vero C1008, Maximum measured -1.389 %, Minimum measured -3.372 %): > 50 µM
EC50 ([3]; vero c1008): > 50 µM

O=C(O)COc1cccc(NC(=O)c2cc(Cl)cc(NC(=O)OCc3ccccc3)c2)c1
EC50 ([1]; Zika virus, VeroE6/TMPRSS2): > 50 µM
EC90 ([1]; Zika virus, VeroE6/TMPRSS2, Baseline response 0 %, Hill slope 0.101, Maximum measured 106.686 %, Maximum response 100 %, Minimum measured 54.693 %, R squared 0.072): > 50 µM
EC50 ([2]; Dengue virus, Vero C1008): > 50 µM
EC90 ([2]; Dengue virus, Vero C1008, Maximum measured 107.555 %, Minimum measured 104.836 %, P-gp concentration 500 nM, P-gp inhibitor CP100356): > 50 µM
EC50 ([3]; Zika virus, Vero C1008): > 50 µM
EC90 ([3]; Zika virus, Vero C1008, Maximum measured -[…], Minimum measured -2.209 %): > 50 µM
EC50 ([5]; Dengue virus, VeroE6/TMPRSS2): > 50 µM
EC90 ([5]; Dengue virus, VeroE6/TMPRSS2, Maximum measured 97.013 %, Minimum measured 38.667 %, P-gp concentration 2 uM, P-gp inhibitor Elacidar): > 50 µM

CCOc1cccc(-c2ccc(S(=O)(=O)Nc3ccc(Cl)cc3C(=O)O)cc2C)c1
EC50 ([1]; Zika virus, VeroE6/TMPRSS2): 2.44 µM
EC90 ([1]; Zika virus, VeroE6/TMPRSS2, Baseline response 0 %, Hill slope -0.481, Maximum measured 136.466 %, Maximum response 100 %, Minimum measured 2.895 %, R squared 0.53): > 50 µM
EC50 ([2]; Dengue virus, Vero C1008): 22.3 µM
EC90 ([2]; Dengue virus, Vero C1008, Baseline response 0 %, Hill slope -31.955, Maximum measured 106.035 %, Maximum response 100 %, Minimum measured 0.035 %, P-gp concentration 500 nM, R squared 0.9, P-gp inhibitor CP100356): 23.9 µM
EC50 ([3]; Zika virus, Vero C1008): > 50 µM
EC90 ([3]; Zika virus, Vero C1008, Baseline response 0 %, Hill slope -0.317, Maximum measured 5.247 %, Maximum response 100 %, Minimum measured -4.425 %, R squared 0.236): > 50 µM
EC50 ([5]; Dengue virus, VeroE6/TMPRSS2): 0.175 µM
EC90 ([5]; Dengue virus, VeroE6/TMPRSS2): > 16.7 µM

COC(=O)c1cc(NC(=O)c2cc(Cl)cc(NC(=O)OCc3ccccc3)c2)cc(-c2nnn[nH]2)c1
EC50 ([1]; Zika virus, VeroE6/TMPRSS2): > 16.7 µM
EC90 ([1]; Zika virus, VeroE6/TMPRSS2, Maximum measured 163.156 %, Minimum measured 112.225 %): > 16.7 µM
EC50 ([2]; Dengue virus, Vero C1008): 43.1 µM
EC90 ([2]; Dengue virus, Vero C1008): 49.4 µM
EC50 ([3]; Zika virus, Vero C1008): > 50 µM
EC90 ([3]; Zika virus, Vero C1008, Maximum measured 4.051 %, Minimum measured -3.87 %): > 50 µM
EC50 ([5]; Dengue virus, VeroE6/TMPRSS2): 39.8 µM
EC90 ([5]; Dengue virus, VeroE6/TMPRSS2, Baseline response 0 %, Hill slope -17.631, Maximum measured 314.134 %, Maximum response 266.23 %, Minimum measured 4.599 %, P-gp concentration 2 uM, R squared 0.779, P-gp inhibitor Elacidar): 45 µM

NCc1cccc(CCc2cc(Cl)cc(NC(=O)OCc3ccccc3)c2)c1
EC50 ([1]; Zika virus, VeroE6/TMPRSS2): > 50 µM
EC90 ([1]; Zika virus, VeroE6/TMPRSS2, Maximum measured 110.897 %, Minimum measured 60.854 %): > 50 µM
EC50 ([2]; Dengue virus, Vero C1008): 7.13 µM
EC90 ([2]; Dengue virus, Vero C1008, Baseline response 0 %, EC90 CI (lower) 3.921 uM, EC90 CI (upper) 6.549 uM, Hill slope -6.432, Maximum measured 108.307 %, Maximum response 100 %, Minimum measured 4.257 %, P-gp concentration 500 nM, R squared 0.964, P-gp inhibitor CP100356): 10 µM
EC50 ([3]; Zika virus, Vero C1008): > 50 µM
EC90 ([3]; Zika virus, Vero C1008, Maximum measured 1.168 %, Minimum measured -5.971 %): > 50 µM
EC50 ([5]; Dengue virus, VeroE6/TMPRSS2): > 1.85 µM
EC90 ([5]; Dengue virus, VeroE6/TMPRSS2, Maximum measured 240.936 %, Minimum measured 110.203 %, P-gp concentration 2 uM, P-gp inhibitor Elacidar): > 1.85 µM
